Source: patent US11718618B2, “Substituted pyrido[2,1-a]isoquinolines as VMAT2 inhibitors” (priority 2021, dated 2023)

Key:
[1] = system: VMAT2; settings: Scherman et al. 1983; read-out: IC50, inhibition of catecholamine uptake by VMAT2; cited from earlier work
[2] = system: male Sprague-Dawley rats; assay: Open-field hypolocomotion / locomotor activity (LMA) assay; format: in vivo; settings: Rattus norvegicus, pre-treatment 60 or 120 minutes, beam breaks in 30 min, read-out: ED50, reduction of locomotor activity
Protocol: The effect of VMAT2 inhibitors on dopamine depletion was measured using the locomotor activity (LMA) assay. Following a pre-treatment time of 60 or 120 minutes, male Sprague-Dawley rats (200-250 g) were placed in a clear cage surrounded by photocell detectors (San Diego Instruments). Rat locomotor activity was detected by breaks in the photocell beams and activity is defined as the number of beam breaks in 30 min. Data was analyzed by one-way analysis of variance (ANOVA; SigmaStat version 3.0.1, SPSS, Chicago, Ill.) followed by the Student Newman Keuls post-hoc test for significance.

[3] = system: male Wistar rats; assay: Conditioned avoidance response (CAR) assay of antipsychotic activity; format: in vivo, rat
Protocol: Animals: Adult male Wistar rats from Envigo (Indianapolis, Ind.) were used in this study. Rats were received at approximately 150 g, assigned unique identification numbers and group housed 2-3 per cage in ventilated cages. All rats were examined, handled, and weighed prior to initiation of the study to assure adequate health and suitability. During the course of the study, 12/12 light/dark cycles were maintained. The RT was maintained between 20° C. and 23° C. with a relative humidity around 50%. Chow and water were provided ad libitum for the duration of the study. All testing was conducted during the light cycle of the rats.
Compound 4-1 (0.03, 0.1, 0.3, and 1 mg/kg) was formulated in 0.25% methyl cellulose and administered orally at a dose volume of 3 mL/kg 120 minutes prior to test.
Compound 4-15 (0.03, 0.1, 0.3, and 1 mg/kg) was formulated in 0.25% methyl cellulose and administered orally at a dose volume of 3 mL/kg 120 minutes prior to test.
In the CAR paradigm, an animal is trained to respond to a conditioned stimulus (auditory and visual) by negative reinforcement (foot shock). Numerous studies have shown that typical and atypical antipsychotic drugs selectively suppress CAR, thus making it an ideal assay to screen potential antipsychotic compounds (Wadenberg & Hicks, Neuroscience and Biobehavioral Reviews, (1999) 23:851-862).
Rats were placed in the CAR two-way shuttle box and the training period of 20 trials ensued. A trial consisted of a 10-sec presentation of an 80 dB white noise followed by a scrambled 0.6 mA foot shock lasting up to 20 sec. The inter-trial interval ranged from 20-60 sec. The rat learned to avoid shock by moving from one compartment to the other when the cue is presented. […] The following measures were captured from the assay:
Avoidance response: If the rat moved from one compartment to the other during the cued-stimulus (CS) presentation. Decreased avoidance responding is the typical signature of an efficacious dose of an antipsychotic.
Avoidance response data were expressed as the number of avoidance responses as well as percent of avoidance responses based on the three baseline responses prior to drug test. Escape failures were expressed as the total number of failures during the test session.
Body weight and avoidance data were analyzed by analysis of variance (ANOVA) followed by Dunnett's post-hoc comparisons when appropriate. Escape failures were analyzed by Kruskal-Wallis nonparametric analysis followed by Dunn's post hoc comparisons when appropriate. Results are reported as mean SEM. An effect was considered statistically significant if p<0.05.

[4] = Stability of compounds in human liver microsomes; format: in vitro ADME
Outline: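 Compound at 0.5 μM incubated at 37 °C with pooled mixed-gender human liver microsomes (0.5 mg/mL protein) and an NADPH-generating system in pH 7.4 phosphate buffer, sampled 0–60 min. Parent depletion tracked by LC-MS/MS; t1/2 derived from the slope by non-linear regression, with predicted extraction ratio and maximum bioavailability also calculated.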

[5] = target: human VMAT2 (Homo sapiens (Human), UniProt Q05940); assay: VMAT2 radioligand binding, 3H-dihydrotetrabenazine competition on human platelet homogenate; settings: 10 nM 3H-dihydrotetrabenazine, human platelet homogenate, 25° C., 90 minutes; read-out: VMAT2 Ki
Sequence of human VMAT2 (Q05940 whole entry): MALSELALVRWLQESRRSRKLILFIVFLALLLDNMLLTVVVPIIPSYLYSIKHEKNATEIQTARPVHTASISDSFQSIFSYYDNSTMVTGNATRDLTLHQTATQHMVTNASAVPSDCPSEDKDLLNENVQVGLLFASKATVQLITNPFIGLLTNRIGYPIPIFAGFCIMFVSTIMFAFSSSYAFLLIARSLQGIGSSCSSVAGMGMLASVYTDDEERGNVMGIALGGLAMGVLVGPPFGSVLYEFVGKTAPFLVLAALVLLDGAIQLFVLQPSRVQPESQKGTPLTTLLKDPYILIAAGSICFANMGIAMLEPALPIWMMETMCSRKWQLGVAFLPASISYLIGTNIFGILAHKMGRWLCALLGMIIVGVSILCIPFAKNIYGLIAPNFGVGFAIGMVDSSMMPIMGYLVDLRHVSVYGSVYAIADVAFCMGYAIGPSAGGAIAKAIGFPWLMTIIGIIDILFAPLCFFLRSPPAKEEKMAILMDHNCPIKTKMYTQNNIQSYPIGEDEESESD
Outline: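 Ki from scintillation counting of filter-bound ³H-dihydrotetrabenazine (10 nM) after 90 min, 25 °C incubation with twelve concentrations of compound. Membranes: human platelet homogenate, 30 μg protein per well; buffer DPBS, 1 mM EDTA, pH 7.4.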

[6] = once formed, in patients administered (±)-TBZ; cited from earlier work

In the case of `COc1cc2c(cc1OCCC(F)(F)F)CCN1C[C@@H](CC(C)(C)C)[C@H](O)C[C@H]21` [Compound 4-15, (2R,3R,11bR)-3-(2,2-dimethylpropyl)-10-methoxy-9-(3,3,3-trifluoropropoxy)-1H,2H,3H,4H,6H,7H,11bH-pyrido[2,1-a]isoquinolin-2-ol], the ED50 [2] is reported as 0.18 mg/kg, the “Avoidance and escape failures” value ([3]; 0.3 mg/kg, oral, Wistar rats) is reported as “reduction in avoidance without significant increase in escape failures” and the ED50 ([3]; Rattus norvegicus, read-out: ED50, conditioned avoidance response) is reported as 0.44 mg/kg. The CLint scaled at 0.5 μM ([4]; both sexes, liver microsomes, pH 7.4, calculated from HLM half-life, human, read-out: HLM Scaled Intrinsic Clearance) was 4.05 mL/min/kg, the half-life at 0.5 μM ([4]; both sexes, pH 7.4, 0.5 μM compound, 0.5 mg/mL human liver microsomes, 37° C., maxed at 420 minutes, read-out: HLM Elimination half-life (t1/2, min)) was 308 min and the “Predicted Max. Bioavailability (% F)” value ([4]; predicted from HLM data, human) was 83 % F. The “HLM Predicted Systemic Clearance” value ([4]; scaled from HLM half-life (Obach method), human) was 3.37 mL/min/kg and the Ki [5] was 1.1 nM.
For `COc1cc2c(cc1OC)C1CC(O)C(CC(C)C)CN1CC2` (stereo not drawn) [[+]-beta-DHTBZ, 3-isobutyl-9,10-dimethoxy-1,3,4,6,7,11b-hexahydro-2H-pyrido[2,1-a]isoquinolin-2-ol], the half-life [6] is given as “approximately 5 hours”.
